US20120259092A1, “NPY ANTAGONISTS” (priority 2011, published 2012)
Entries after “also recorded” stand apart in the source; their conditions may differ. Bridge positions count the residues as written; N and C are the ends. Square brackets hold non-standard residues; d marks the D form. Peptide text beside a SMILES is read from it. I, II: the chains in the order shown. * marks the point of attachment. DOTA = O=C(O)CN1CCN(CC(=O)O)CCN(CC(=O)*)CCN(CC(=O)O)CC1; Nle = CCCC[C@H](N)C(=O)O

Key:
NPY Y1 [1] = molecular target: T1, NPY Y1 (Homo sapiens, UniProt P25929); experiment: Receptor autoradiography binding, 125I-hPYY displacement on SK-N-MC cell membrane pellet sections; conditions: for IC50: SK-N-MC membrane pellet sections, 125I-hPYY, read-out: Binding affinity (IC50 nM) Y1 (SK-N-MC); for Displacement of 125I-hPYY (FIG. 2): SK-N-MC cell line, competition experiments
T1 construct: SK-N-MC cells endogenously expressing Y1; host or cells: SK-N-MC
T1 sequence (P25929 1-384): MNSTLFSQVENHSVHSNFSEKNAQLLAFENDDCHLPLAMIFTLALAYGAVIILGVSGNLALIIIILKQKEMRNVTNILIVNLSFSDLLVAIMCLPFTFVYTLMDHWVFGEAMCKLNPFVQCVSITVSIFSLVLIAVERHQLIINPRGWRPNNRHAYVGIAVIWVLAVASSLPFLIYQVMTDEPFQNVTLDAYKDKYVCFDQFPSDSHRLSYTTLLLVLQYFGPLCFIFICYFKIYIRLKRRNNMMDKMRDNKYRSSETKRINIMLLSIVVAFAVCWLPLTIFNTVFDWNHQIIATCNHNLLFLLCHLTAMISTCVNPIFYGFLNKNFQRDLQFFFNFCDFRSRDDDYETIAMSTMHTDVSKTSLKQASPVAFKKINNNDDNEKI
Experimental: Testing of Peptides 1-11 was carried out using specific cell lines. The neuroepithelioma cell line SK-N-MC endogenously expressing the NPY Y1 receptor was obtained from ATCC (HTB-10; LGC Standards, Teddington, Middlesex, UK). Cells were cultured at 37° C. and 5% CO2 in MEM medium with GlutaMax I and supplemented with 10% FBS, 100 U/ml penicillin and 100 μg/ml streptomycin, 1 mM MEM sodium pyruvate, and MEM non-essential amino acids (1×). The neuroblastoma cell line SH-SY5Y endogenously expressing the NPY Y2 receptor, was provided by Dr. Paolo Paganetti (Novartis, Basel, Switzerland). Cells were cultured at 37° C. and 5% CO2 in MEM/Ham's F12 with GlutaMax I and supplemented with 10% FBS, 100 U/ml penicillin and 100 μg/ml streptomycin, 1 mM MEM sodium pyruvate, and MEM non-essential amino acids (1×).
Binding affinities of the compounds were assessed using sections of cell membrane pellets of SK-N-MC for NPY Y1 or SH-SY5Y for NPY Y2. Briefly, membrane pellets were prepared and stored at −80° C., and receptor autoradiography was performed on 20-μm thick cryostat sections of the membrane pellets, mounted on microscope slides and stored at −20° C. The slides were preincubated in Krebs-Ringer solution (NaCl 119 mM, KCl 3.2 mM, KH2PO4 1.19 mM, MgSO4 1.19 mM, NaHCO3 25 mM, CaCl2 2.53 mM, D-glucose 10 mM; pH 7.4) for 60 min at room temperature. Then, they were incubated for 120 min in Krebs-Ringer solution containing 0.1% BSA, 0.05% bacitracin, and 10 000 cpm/100 μl of the ^125I-labeled human PYY alone or with increasing concentrations ranging from 0.1 nM up to 1000 nM of non-labeled hPYY, as control, or with the compounds to be tested. After the incubation, the slides were washed two times for 5 min and then rinsed four times in ice-cold preincubation solution. After drying, the slides were exposed to Kodak films Biomax MR® for 7 days. IC50 values were calculated after quantification of the data using a computer-assisted image processing system. Tissue standards containing known amount of isotope, cross-calibrated to tissue-equivalent ligand concentrations were used for quantification.
The DOTA-free and DOTA-coupled analogs listed in Table 1 were analyzed in receptor autoradiography experiments for NPY Y1 and Y2 receptor binding affinities on SK-N-MC cells endogenously expressing Y1 and SH-SY5Y cells endogenously expressing Y2, respectively. Pharmacological displacement experiment using SK-N-MC cell membrane pellet sections for Peptides Nos. 9, 10 and 11 are shown in FIG. 2. The addition of two DOTA moieties to the homodimeric analogs decreases the Y1 binding affinity up to 2-30 fold.

NPY Y1 [2] = molecular target: T1, NPY Y1; experiment: Adenylate cyclase activity (forskolin-stimulated cAMP accumulation) flashplate assay in SK-N-MC cells; format: cell-based; conditions: for Activity Y1-cAMP (SK-N-MC): agonistic or antagonistic property: SK-N-MC cells
Experimental: Cells were incubated for 30 min with 10 μM forskolin in the presence of [Leu^31-Pro^34]-PYY (LP-PYY) at concentrations ranging between 0.01 nM and 20 μM alone ([…]) or with 10 μM forskolin in the presence of LP-PYY at concentrations ranging between 0.01 nM and 20 μM supplemented with a fixed concentration of 20 μM of the analog Peptide No. 11 (▪). […] Peptide No. 11 given alone has no effect on the accumulation of forskolin-stimulated cAMP (▴).
Adenylate cyclase activity with respect to NPY Y1 was determined in SK-N-MC cells using the adenylate cyclase activation flashplate assay (SMP004) from PerkinElmer. SK-N-MC cells were seeded in 96-well culture plates at 25,000 cells/well and cultured for 48 h at 37° C. and 5% CO2. Culture medium was then removed from the wells and fresh medium (100 μL) containing 0.5 mM 3-isobutyl-1-methylxanthine (IBMX) was added to each well. Cells were incubated for 30 min at 37° C. Medium was then removed and replaced with fresh medium containing 0.5 mM IBMX, with or without 10 μM forskolin and various concentrations of the peptides to be analyzed. Cells were incubated for 30 min at 37° C. After removal of the medium, cells were lysed and cAMP accumulation was determined using the SMP004 kit from PerkinElmer.
Because the addition of a DOTA moiety can change the functional characteristics of a compound, as recently shown in the somatostatin receptor field for sst3, compounds having a high or moderate Y1 affinity were analyzed in an adenylate cyclase activity assay for their agonistic or antagonistic properties. […] Given alone at a high concentration of 20 μM, they were unable to inhibit forskolin-stimulated cAMP accumulation but they efficiently antagonized the agonistic effect of 100 nM [Leu^31, Pro^34]-hPYY. […] The conclusion is that the DOTA-conjugated compound, i.e. Peptide No. 11, with its high binding affinity and its antagonist property represents an excellent candidate for in vivo tumor targeting.

Molecule | IC50 (NPY Y1 [1]) [nM] | Activity Y1-cAMP (SK-N-MC): agonistic or antagonistic property (NPY Y1 [2]; 10 μM forskolin) | Displacement of 125I-hPYY (FIG. 2) (NPY Y1 [1]) | Effect on forskolin-stimulated cAMP accumulation, given alone (NPY Y1 [2]; peptide alone, 20 μM, 10 μM forskolin) | Effect on dose response curve of [Leu31,Pro34]-PYY (LP-PYY) (NPY Y1 [2]; peptide fixed at 20 μM, with increasing LP-PYY, 10 μM forskolin, 30 min) | Inhibition of forskolin-stimulated cAMP accumulation (agonist control) (NPY Y1 [2]; applied at 20 μM and 100 nM)
CCCC[C@H](NC(=O)[C@H](CCCNC(=N)N)NC(=O)[C@H](Cc1c[nH]c2ccccc12)NC(=O)[C@H](CSSC[C@H](NC(=O)[C@@H]1CCCN1C(=O)[C@H](CC(N)=O)NC(=O)[C@@H](NC(=O)CN1CCN(CC(=O)O)CCN(CC(=O)O)CCN(CC(=O)O)CC1)[C@@H](C)CC)C(=O)N[C@@H](Cc1c[nH]c2ccccc12)C(=O)N[C@@H](CCCNC(=N)N)C(=O)N[C@@H](CCCC)C(=O)N[C@@H](CCCNC(=N)N)C(=O)N[C@@H](Cc1ccc(O)cc1)C(N)=O)NC(=O)[C@@H]1CCCN1C(=O)[C@H](CC(N)=O)NC(=O)[C@@H](NC(=O)CN1CCN(CC(=O)O)CCN(CC(=O)O)CCN(CC(=O)O)CC1)[C@@H](C)CC)C(=O)N[C@@H](CCCNC(=N)N)C(=O)N[C@@H](Cc1ccc(O)cc1)C(N)=O [compound 4] (I: {DOTA}-INPCWR[Nle]RY-NH2 / II: {DOTA}-INPCWR[Nle]RY-NH2; disulfide I:4-II:4) | 294 ± 33 | Antagonist |  |  |  | 
CCCC[C@H](NC(=O)[C@H](CCCNC(=N)N)NC(=O)[C@H](Cc1c[nH]c2ccccc12)NC(=O)[C@H](CSSC[C@H](NC(=O)[C@@H]1CCCN1C(=O)[C@H](CC(N)=O)NC(=O)[C@@H](N)[C@@H](C)CC)C(=O)N[C@@H](Cc1c[nH]c2ccccc12)C(=O)N[C@@H](CCCNC(=N)N)C(=O)N[C@@H](CCCC)C(=O)N[C@@H](CCCNC(=N)N)C(=O)N[C@@H](Cc1ccc(O)cc1)C(N)=O)NC(=O)[C@@H]1CCCN1C(=O)[C@H](CCCCNC(=O)CN1CCN(CC(=O)O)CCN(CC(=O)O)CCN(CC(=O)O)CC1)NC(=O)[C@@H](N)[C@@H](C)CC)C(=O)N[C@@H](CCCNC(=N)N)C(=O)N[C@@H](Cc1ccc(O)cc1)C(N)=O [Peptide No. 11] (I: H-IK(DOTA)PCWR[Nle]RY-NH2 / II: H-INPCWR[Nle]RY-NH2; disulfide I:4-II:4) | 13 | Antagonist | high affinity displacements | no effect | shifts the dose response curve of LP-PYY to the right; also recorded: shift the dose response curve of [Leu^31, Pro^34]-hPYY to the right | 
[Leu^31, Pro^34]-hPYY [reference compound] |  |  |  |  |  | efficiently inhibited forskolin-stimulated cAMP accumulation
CC[C@H](C)[C@H](NC(=O)CN1CCN(CC(=O)O)CCN(CC(=O)O)CCN(CC(=O)O)CC1)C(=O)N[C@@H](CC(N)=O)C(=O)N1CCC[C@H]1C(=O)N[C@@H](CSSC[C@H](NC(=O)[C@@H]1CCCN1C(=O)[C@H](CC(N)=O)NC(=O)[C@@H](NC(=O)CN1CCN(CC(=O)O)CCN(CC(=O)O)CCN(CC(=O)O)CC1)[C@@H](C)CC)C(=O)N[C@@H](Cc1ccc(O)cc1)C(=O)N[C@@H](CCCNC(=N)N)C(=O)N[C@@H](CC(C)C)C(=O)N[C@@H](CCCNC(=N)N)C(=O)N[C@@H](Cc1ccc(O)cc1)C(N)=O)C(=O)N[C@@H](Cc1ccc(O)cc1)C(=O)N[C@@H](CCCNC(=N)N)C(=O)N[C@@H](CC(C)C)C(=O)N[C@@H](CCCNC(=N)N)C(=O)N[C@@H](Cc1ccc(O)cc1)C(N)=O [compound 2] (I: {DOTA}-INPCYRLRY-NH2 / II: {DOTA}-INPCYRLRY-NH2; disulfide I:4-II:4) | 143 ± 37 | Antagonist |  |  |  | 
hPYY: non-labeled human peptide YY, used as control in binding competition [reference compound] |  |  | high affinity displacements |  |  | 
